{"source": "patent US10844077B2", "about": "“Thiazolyl-containing compounds for treating proliferative diseases” (Dana-Farber Cancer Institute, Inc., priority 2014, dated 2020)", "assay_in_all_cases": "KINATIV assay of compounds I-3 and I-9, lysate directly labeled with ATP-biotin probe (no GF)", "assay_type_in_all_cases": "cell-based", "key": {"kinases in BCWM.1 cells [1]": {"molecular_target": "kinases in BCWM.1 cells (Homo sapiens, UniProt Q9UBS0)", "settings": "p70S6Kb; Lys2; 1 μM, 90 min; no GF", "procedure": "(§1) The cells were harvested and lysed. […] Bound kinases were identified and quantitated by ACTIVX as described in Patricelli et al., Biochemistry, 2007, 46(2): 350-358. The compounds were tested in duplicates against duplicate or quadruplicate control samples."}, "kinases in BCWM.1 cells [2]": {"molecular_target": "kinases in BCWM.1 cells (Homo sapiens, UniProt Q13523)", "sequence (Q13523 2-1007 limits assumed)": "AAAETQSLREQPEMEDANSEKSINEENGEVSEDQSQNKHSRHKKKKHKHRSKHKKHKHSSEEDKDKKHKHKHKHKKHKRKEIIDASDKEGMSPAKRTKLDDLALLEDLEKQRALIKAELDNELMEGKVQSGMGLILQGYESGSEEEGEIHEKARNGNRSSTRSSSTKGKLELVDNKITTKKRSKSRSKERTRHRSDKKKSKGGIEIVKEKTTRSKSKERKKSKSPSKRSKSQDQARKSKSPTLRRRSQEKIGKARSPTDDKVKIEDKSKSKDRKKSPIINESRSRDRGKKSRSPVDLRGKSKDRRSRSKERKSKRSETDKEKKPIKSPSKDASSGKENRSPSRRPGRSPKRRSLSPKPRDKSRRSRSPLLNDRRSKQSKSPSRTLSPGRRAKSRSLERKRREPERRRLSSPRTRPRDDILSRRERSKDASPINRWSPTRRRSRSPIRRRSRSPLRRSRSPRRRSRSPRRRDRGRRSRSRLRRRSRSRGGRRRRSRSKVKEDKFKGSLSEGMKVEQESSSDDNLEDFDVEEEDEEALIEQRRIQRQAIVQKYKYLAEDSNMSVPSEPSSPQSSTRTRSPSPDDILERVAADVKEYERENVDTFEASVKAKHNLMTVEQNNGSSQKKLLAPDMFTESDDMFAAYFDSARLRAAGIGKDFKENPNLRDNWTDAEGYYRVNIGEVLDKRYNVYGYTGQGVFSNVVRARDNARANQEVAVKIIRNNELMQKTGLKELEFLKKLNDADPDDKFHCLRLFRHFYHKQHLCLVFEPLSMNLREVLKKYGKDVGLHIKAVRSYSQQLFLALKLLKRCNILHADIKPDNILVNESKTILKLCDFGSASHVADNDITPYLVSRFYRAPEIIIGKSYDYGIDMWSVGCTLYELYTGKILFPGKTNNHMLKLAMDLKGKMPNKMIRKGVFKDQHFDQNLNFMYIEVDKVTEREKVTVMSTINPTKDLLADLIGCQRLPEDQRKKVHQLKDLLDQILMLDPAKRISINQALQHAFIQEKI", "settings": "PRP4; Lys2; 1 μM, 90 min; no GF", "procedure": "as §1"}, "kinases in BCWM.1 cells [3]": {"molecular_target": "kinases in BCWM.1 cells (Homo sapiens, UniProt P42680)", "settings": "TEC; Activation Loop; 1 μM, 90 min; no GF", "procedure": "as §1"}, "kinases in BCWM.1 cells [4]": {"molecular_target": "kinases in BCWM.1 cells (Homo sapiens, UniProt Q15418)", "settings": "Lys2, 1 μM, 90 min, no GF", "procedure": "as §1"}, "kinases in BCWM.1 cells [5]": {"molecular_target": "kinases in BCWM.1 cells (Homo sapiens, UniProt O95747)", "sequence (O95747 2-527 limits assumed)": "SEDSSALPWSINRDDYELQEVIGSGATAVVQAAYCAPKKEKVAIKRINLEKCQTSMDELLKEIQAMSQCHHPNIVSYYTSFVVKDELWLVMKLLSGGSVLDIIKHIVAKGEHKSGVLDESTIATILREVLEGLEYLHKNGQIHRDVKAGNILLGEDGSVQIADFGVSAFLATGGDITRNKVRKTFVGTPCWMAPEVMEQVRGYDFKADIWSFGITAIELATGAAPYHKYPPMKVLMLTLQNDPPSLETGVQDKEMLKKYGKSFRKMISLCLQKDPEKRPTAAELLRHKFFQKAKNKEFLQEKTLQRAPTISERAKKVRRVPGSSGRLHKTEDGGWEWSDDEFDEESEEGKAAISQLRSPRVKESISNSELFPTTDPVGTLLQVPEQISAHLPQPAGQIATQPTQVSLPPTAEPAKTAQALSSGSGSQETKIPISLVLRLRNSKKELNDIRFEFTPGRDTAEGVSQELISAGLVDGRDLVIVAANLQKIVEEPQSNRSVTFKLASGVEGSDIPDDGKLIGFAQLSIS", "settings": "OSR1; Lys2; 1 μM, 90 min; no GF", "procedure": "as §1"}, "kinases in BCWM.1 cells [6]": {"molecular_target": "kinases in BCWM.1 cells (Homo sapiens, UniProt O00750)", "settings": "PIK3C2B; ATP; 1 μM, 90 min; no GF", "procedure": "as §1"}, "kinases in BCWM.1 cells [7]": {"molecular_target": "kinases in BCWM.1 cells (Homo sapiens, UniProt P51955)", "settings": "NEK2; Lys2; 1 μM, 90 min; no GF", "procedure": "as §1"}, "kinases in BCWM.1 cells [8]": {"molecular_target": "kinases in BCWM.1 cells (Homo sapiens, UniProt P43405)", "settings": "SYK; Activation Loop; 1 μM, 90 min; no GF", "procedure": "as §1"}, "kinases in BCWM.1 cells [9]": {"molecular_target": "kinases in BCWM.1 cells (Homo sapiens, UniProt Q9UL54)", "settings": "TAO2; Lys2; 1 μM, 90 min; no GF", "procedure": "as §1"}, "kinases in BCWM.1 cells [10]": {"molecular_target": "kinases in BCWM.1 cells (Homo sapiens, UniProt O94921)", "procedure": "as §1"}, "kinases in BCWM.1 cells [11]": {"molecular_target": "kinases in BCWM.1 cells (Homo sapiens, UniProt Q00536)", "procedure": "as §1"}, "kinases in BCWM.1 cells [12]": {"molecular_target": "kinases in BCWM.1 cells (Homo sapiens, UniProt P15735)", "settings": "PHKg2; Lys1; 1 μM, 90 min; no GF", "procedure": "as §1"}, "kinases in BCWM.1 cells [13]": {"molecular_target": "kinases in BCWM.1 cells (Homo sapiens, UniProt Q16539)", "sequence (Q16539 2-360 limits assumed)": "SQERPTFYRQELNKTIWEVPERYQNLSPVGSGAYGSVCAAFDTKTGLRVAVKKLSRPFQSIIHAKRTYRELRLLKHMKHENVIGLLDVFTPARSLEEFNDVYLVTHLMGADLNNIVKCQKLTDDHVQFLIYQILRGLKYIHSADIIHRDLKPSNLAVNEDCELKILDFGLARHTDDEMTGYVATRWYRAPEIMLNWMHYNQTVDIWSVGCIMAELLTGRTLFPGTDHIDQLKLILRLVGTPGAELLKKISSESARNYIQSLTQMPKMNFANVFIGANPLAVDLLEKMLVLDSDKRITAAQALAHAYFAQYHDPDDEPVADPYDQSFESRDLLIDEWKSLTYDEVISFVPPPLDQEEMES", "settings": "p38a, 1 μM, 90 min, no GF", "procedure": "as §1"}, "kinases in BCWM.1 cells [14]": {"molecular_target": "kinases in BCWM.1 cells (Homo sapiens, UniProt Q96PY6)", "settings": "NEK1; Lys2; 1 μM, 90 min; no GF", "procedure": "as §1"}, "kinases in BCWM.1 cells [15]": {"molecular_target": "kinases in BCWM.1 cells (Homo sapiens, UniProt P51957)", "settings": "NEK4; Lys2; 1 μM, 90 min; no GF", "procedure": "as §1"}, "kinases in BCWM.1 cells [16]": {"molecular_target": "kinases in BCWM.1 cells (Homo sapiens, UniProt O00329)", "settings": "PIK3CD; ATP; 1 μM, 90 min; no GF", "procedure": "as §1"}, "kinases in BCWM.1 cells [17]": {"tested_on": "kinases in BCWM.1 cells", "settings": "1 μM, 90 min, no GF", "procedure": "as §1"}, "kinases in BCWM.1 cells [18]": {"molecular_target": "kinases in BCWM.1 cells (Homo sapiens, UniProt Q6PHR2)", "settings": "ULK3; Lys2; 1 μM, 90 min; no GF", "procedure": "as §1"}, "kinases in BCWM.1 cells [19]": {"molecular_target": "kinases in BCWM.1 cells (Homo sapiens, UniProt O95819)", "sequence (O95819 2-1239 limits assumed)": "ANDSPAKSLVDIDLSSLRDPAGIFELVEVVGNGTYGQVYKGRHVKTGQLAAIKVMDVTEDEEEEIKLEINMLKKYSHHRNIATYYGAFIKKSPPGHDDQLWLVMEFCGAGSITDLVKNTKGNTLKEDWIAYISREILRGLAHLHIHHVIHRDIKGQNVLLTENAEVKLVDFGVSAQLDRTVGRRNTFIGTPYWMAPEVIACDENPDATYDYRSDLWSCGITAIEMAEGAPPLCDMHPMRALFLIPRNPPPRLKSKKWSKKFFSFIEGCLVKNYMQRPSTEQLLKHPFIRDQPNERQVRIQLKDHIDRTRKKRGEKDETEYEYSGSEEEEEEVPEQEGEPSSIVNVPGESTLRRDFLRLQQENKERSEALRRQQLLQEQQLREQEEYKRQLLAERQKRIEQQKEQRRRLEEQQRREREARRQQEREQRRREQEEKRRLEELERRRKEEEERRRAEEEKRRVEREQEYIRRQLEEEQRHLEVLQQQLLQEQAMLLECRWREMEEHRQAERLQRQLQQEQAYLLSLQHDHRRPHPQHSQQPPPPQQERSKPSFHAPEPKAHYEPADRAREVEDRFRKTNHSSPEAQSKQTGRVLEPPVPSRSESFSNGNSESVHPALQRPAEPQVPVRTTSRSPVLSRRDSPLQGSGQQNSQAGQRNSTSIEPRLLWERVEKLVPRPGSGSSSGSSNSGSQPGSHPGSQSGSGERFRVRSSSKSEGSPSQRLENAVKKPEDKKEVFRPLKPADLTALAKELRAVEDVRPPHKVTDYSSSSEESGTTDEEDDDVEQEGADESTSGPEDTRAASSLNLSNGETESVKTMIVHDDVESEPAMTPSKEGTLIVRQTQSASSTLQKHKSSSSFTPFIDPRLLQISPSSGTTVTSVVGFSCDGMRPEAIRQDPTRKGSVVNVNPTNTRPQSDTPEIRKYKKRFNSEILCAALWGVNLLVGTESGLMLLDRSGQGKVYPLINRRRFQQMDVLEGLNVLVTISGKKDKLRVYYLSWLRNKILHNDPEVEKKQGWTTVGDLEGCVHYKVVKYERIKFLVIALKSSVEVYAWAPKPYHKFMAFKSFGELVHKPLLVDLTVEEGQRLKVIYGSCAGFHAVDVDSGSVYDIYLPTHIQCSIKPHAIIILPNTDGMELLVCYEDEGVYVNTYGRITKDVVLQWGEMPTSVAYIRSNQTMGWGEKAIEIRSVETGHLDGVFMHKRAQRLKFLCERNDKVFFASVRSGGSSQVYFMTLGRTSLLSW", "settings": "ZC1/HGK; Lys1; 1 μM, 90 min; no GF", "procedure": "as §1"}, "kinases in BCWM.1 cells [20]": {"molecular_target": "kinases in BCWM.1 cells (Homo sapiens, UniProt Q96S44)", "settings": "PRPK; ATP Loop; 1 μM, 90 min; no GF", "procedure": "as §1"}, "kinases in BCWM.1 cells [21]": {"molecular_target": "kinases in BCWM.1 cells (Homo sapiens, UniProt Q15349)", "settings": "RSK3 domain1; Lys2; 1 μM, 90 min; no GF", "procedure": "as §1"}, "kinases in BCWM.1 cells [22]": {"molecular_target": "kinases in BCWM.1 cells (Homo sapiens, UniProt Q9Y2I7)", "settings": "PIP5K3; ATP; 1 μM, 90 min; no GF", "procedure": "as §1"}, "kinases in BCWM.1 cells [23]": {"molecular_target": "kinases in BCWM.1 cells (Homo sapiens, UniProt Q14289)", "settings": "PYK2; Activation Loop; 1 μM, 90 min; no GF", "procedure": "as §1"}, "kinases in BCWM.1 cells [24]": {"molecular_target": "kinases in BCWM.1 cells (Homo sapiens, UniProt Q86UE8)", "settings": "TLK2; Lys2; 1 μM, 90 min; no GF", "procedure": "as §1"}, "kinases in BCWM.1 cells [25]": {"molecular_target": "kinases in BCWM.1 cells (Homo sapiens, UniProt O15530)", "settings": "PDK1; Lys1; 1 μM, 90 min; no GF", "procedure": "as §1"}, "kinases in BCWM.1 cells [26]": {"molecular_target": "kinases in BCWM.1 cells (Homo sapiens, UniProt Q9UKI8)", "settings": "TLK1; Lys2; 1 μM, 90 min; no GF", "procedure": "as §1"}}}
{"smiles": "CCC(=O)N1CC[C@H](Nc2nccc(Nc3ncc(C(=O)Nc4c(C)cccc4C)s3)n2)C1", "note": "[Example I-9]", "values": [{"measurement": "% change of MS signal compared to control sample", "setting": "kinases in BCWM.1 cells [1]", "value": 24.3, "unit": "%"}, {"measurement": "% change of MS signal compared to control sample", "setting": "kinases in BCWM.1 cells [2]", "value": "−24.8", "unit": "%"}, {"measurement": "% change of MS signal compared to control sample", "setting": "kinases in BCWM.1 cells [3]", "value": 97.4, "unit": "%"}, {"measurement": "% change of MS signal compared to control sample", "setting": "kinases in BCWM.1 cells [4]; RSK1 domain1", "value": "−2", "unit": "%"}, {"measurement": "% change of MS signal compared to control sample", "setting": "kinases in BCWM.1 cells [4]; RSK1 domain2", "value": "−9.7", "unit": "%"}, {"measurement": "% change of MS signal compared to control sample", "setting": "kinases in BCWM.1 cells [5]", "value": 2.7, "unit": "%"}, {"measurement": "% change of MS signal compared to control sample", "setting": "kinases in BCWM.1 cells [6]", "value": 28.5, "unit": "%"}, {"measurement": "% change of MS signal compared to control sample", "setting": "kinases in BCWM.1 cells [7]", "value": "−8.2", "unit": "%"}, {"measurement": "% change of MS signal compared to control sample", "setting": "kinases in BCWM.1 cells [8]", "value": "−6.5", "unit": "%"}, {"measurement": "% change of MS signal compared to control sample", "setting": "kinases in BCWM.1 cells [9]", "value": 4.3, "unit": "%"}, {"measurement": "% change of MS signal compared to control sample", "setting": "kinases in BCWM.1 cells [10]", "value": "−3.9", "unit": "%"}, {"measurement": "% change of MS signal compared to control sample", "setting": "kinases in BCWM.1 cells [11]", "value": 4.1, "unit": "%"}, {"measurement": "% change of MS signal compared to control sample", "setting": "kinases in BCWM.1 cells [12]", "value": 12.5, "unit": "%"}, {"measurement": "% change of MS signal compared to control sample", "setting": "kinases in BCWM.1 cells [13]; Lys2", "value": "−7.8", "unit": "%"}, {"measurement": "% change of MS signal compared to control sample", "setting": "kinases in BCWM.1 cells [13]; Protein Kinase Domain", "value": "−2.9", "unit": "%"}, {"measurement": "% change of MS signal compared to control sample", "setting": "kinases in BCWM.1 cells [14]", "value": "−3.7", "unit": "%"}, {"measurement": "% change of MS signal compared to control sample", "setting": "kinases in BCWM.1 cells [15]", "value": "−13.1", "unit": "%"}, {"measurement": "% change of MS signal compared to control sample", "setting": "kinases in BCWM.1 cells [16]", "value": "−19.7", "unit": "%"}, {"measurement": "% change of MS signal compared to control sample", "setting": "kinases in BCWM.1 cells [17]; MST4, YSK1, Lys2", "value": 9.7, "unit": "%"}, {"measurement": "% change of MS signal compared to control sample", "setting": "kinases in BCWM.1 cells [17]; NEK6, NEK7, Lys2", "value": "−3.3", "unit": "%"}, {"measurement": "% change of MS signal compared to control sample", "setting": "kinases in BCWM.1 cells [17]; PCTAIRE2, PCTAIRE3, Lys1", "value": "−4.7", "unit": "%"}, {"measurement": "% change of MS signal compared to control sample", "setting": "kinases in BCWM.1 cells [17]; PI4KA, PI4KAP2, ATP", "value": 20.3, "unit": "%"}, {"measurement": "% change of MS signal compared to control sample", "setting": "kinases in BCWM.1 cells [17]; PKACa, PKCb, Lys2", "value": 16.9, "unit": "%"}, {"measurement": "% change of MS signal compared to control sample", "setting": "kinases in BCWM.1 cells [17]; ROCK1, ROCK2, Lys2", "value": 24.4, "unit": "%"}, {"measurement": "% change of MS signal compared to control sample", "setting": "kinases in BCWM.1 cells [17]; RSK1 domain1, RSK2 domain1, RSK3 domain1, Lys2", "value": "−12", "unit": "%"}, {"measurement": "% change of MS signal compared to control sample", "setting": "kinases in BCWM.1 cells [17]; SRPK1, SRPK2, Lys1", "value": 10, "unit": "%"}, {"measurement": "% change of MS signal compared to control sample", "setting": "kinases in BCWM.1 cells [17]; TAO1, TAO3, Lys2", "value": 5.1, "unit": "%"}, {"measurement": "% change of MS signal compared to control sample", "setting": "kinases in BCWM.1 cells [17]; Wnk1, Wnk2, Wnk3, Lys2", "value": "−10.8", "unit": "%"}, {"measurement": "% change of MS signal compared to control sample", "setting": "kinases in BCWM.1 cells [17]; Wnk1, Wnk2, ATP Loop", "value": "−6.3", "unit": "%"}, {"measurement": "% change of MS signal compared to control sample", "setting": "kinases in BCWM.1 cells [17]; ZC1/HGK, ZC2/TNIK, ZC3/MINK, Lys2", "value": "−2", "unit": "%"}, {"measurement": "% change of MS signal compared to control sample", "setting": "kinases in BCWM.1 cells [17]; p38d, p38g, Lys2", "value": "−8.8", "unit": "%"}, {"measurement": "% change of MS signal compared to control sample", "setting": "kinases in BCWM.1 cells [18]", "value": "−16.4", "unit": "%"}, {"measurement": "% change of MS signal compared to control sample", "setting": "kinases in BCWM.1 cells [19]", "value": 20.9, "unit": "%"}, {"measurement": "% change of MS signal compared to control sample", "setting": "kinases in BCWM.1 cells [20]", "value": "−2", "unit": "%"}, {"measurement": "% change of MS signal compared to control sample", "setting": "kinases in BCWM.1 cells [21]", "value": "−1.4", "unit": "%"}, {"measurement": "% change of MS signal compared to control sample", "setting": "kinases in BCWM.1 cells [22]", "value": "−6.7", "unit": "%"}, {"measurement": "% change of MS signal compared to control sample", "setting": "kinases in BCWM.1 cells [23]", "value": 5.1, "unit": "%"}, {"measurement": "% change of MS signal compared to control sample", "setting": "kinases in BCWM.1 cells [24]", "value": "−13.3", "unit": "%"}, {"measurement": "% change of MS signal compared to control sample", "setting": "kinases in BCWM.1 cells [25]", "value": "−6.4", "unit": "%"}, {"measurement": "% change of MS signal compared to control sample", "setting": "kinases in BCWM.1 cells [26]", "value": "−7.9", "unit": "%"}]}
